Test [1] addresses T1, Calpain-2 catalytic subunit (Sus scrofa, UniProt P43367).
T1 sequence (P43367 whole entry): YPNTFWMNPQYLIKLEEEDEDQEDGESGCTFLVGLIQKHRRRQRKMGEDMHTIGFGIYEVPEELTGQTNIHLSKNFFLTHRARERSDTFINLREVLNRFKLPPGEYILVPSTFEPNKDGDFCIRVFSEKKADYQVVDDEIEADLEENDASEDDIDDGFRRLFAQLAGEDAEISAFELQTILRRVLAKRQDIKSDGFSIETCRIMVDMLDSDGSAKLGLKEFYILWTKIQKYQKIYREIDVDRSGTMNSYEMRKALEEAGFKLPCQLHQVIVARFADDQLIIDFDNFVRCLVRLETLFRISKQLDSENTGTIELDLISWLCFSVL
Kind of test: m-calpain protease blockers, concentration series – biochemical, fluorogenic peptide substrate, dose response (AID 1420). Format: functional.

A further test addresses Cytochrome P450 3A4 (Homo sapiens, UniProt P08684). Particulars: Potency.
Test [2] deals with Induced myeloid leukemia cell differentiation protein Mcl-1 (Homo sapiens, UniProt Q07820). Format: functional.
A further test has as its target Cytochrome P450 2C9 (Homo sapiens, UniProt P11712).
Another test deals with Prothrombin (Homo sapiens, UniProt P00734). Description: Thrombin 1536 HTS Dose Response Confirmation. [Related pubchem assays: 1046 (Thrombin 1536 HTS; hits were confirmed in this assay)]. Format: functional.
Test [3] is described as follows: viability of HCT116 lacking mutant beta-catenin – cell-based, human colon tumor, dose response (AID 1045).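 Note: HCT116 colon tumor cells with beta catenin knocked out; cells exposed to compound for 60 hours.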 The test is classed as functional.
Test [4] deals with T2, Sentrin-specific protease 8 (Homo sapiens, UniProt Q96LD8).
T2 sequence (Q96LD8 whole entry): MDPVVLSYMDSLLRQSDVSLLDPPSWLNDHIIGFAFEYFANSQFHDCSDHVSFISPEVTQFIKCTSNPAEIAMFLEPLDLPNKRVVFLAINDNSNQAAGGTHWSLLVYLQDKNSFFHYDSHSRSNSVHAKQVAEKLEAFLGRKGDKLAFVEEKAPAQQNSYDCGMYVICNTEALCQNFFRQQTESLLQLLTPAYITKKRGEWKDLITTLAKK
Format: functional.

For test [5], the target named is T3, Sentrin-specific protease 7 (Homo sapiens, UniProt Q9BQF6).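 Note: Luminescence-based dose-response confirmation of ultra-high-throughput screening hits, measuring inhibition of SENP7.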
T3 sequence (Q9BQF6 whole entry): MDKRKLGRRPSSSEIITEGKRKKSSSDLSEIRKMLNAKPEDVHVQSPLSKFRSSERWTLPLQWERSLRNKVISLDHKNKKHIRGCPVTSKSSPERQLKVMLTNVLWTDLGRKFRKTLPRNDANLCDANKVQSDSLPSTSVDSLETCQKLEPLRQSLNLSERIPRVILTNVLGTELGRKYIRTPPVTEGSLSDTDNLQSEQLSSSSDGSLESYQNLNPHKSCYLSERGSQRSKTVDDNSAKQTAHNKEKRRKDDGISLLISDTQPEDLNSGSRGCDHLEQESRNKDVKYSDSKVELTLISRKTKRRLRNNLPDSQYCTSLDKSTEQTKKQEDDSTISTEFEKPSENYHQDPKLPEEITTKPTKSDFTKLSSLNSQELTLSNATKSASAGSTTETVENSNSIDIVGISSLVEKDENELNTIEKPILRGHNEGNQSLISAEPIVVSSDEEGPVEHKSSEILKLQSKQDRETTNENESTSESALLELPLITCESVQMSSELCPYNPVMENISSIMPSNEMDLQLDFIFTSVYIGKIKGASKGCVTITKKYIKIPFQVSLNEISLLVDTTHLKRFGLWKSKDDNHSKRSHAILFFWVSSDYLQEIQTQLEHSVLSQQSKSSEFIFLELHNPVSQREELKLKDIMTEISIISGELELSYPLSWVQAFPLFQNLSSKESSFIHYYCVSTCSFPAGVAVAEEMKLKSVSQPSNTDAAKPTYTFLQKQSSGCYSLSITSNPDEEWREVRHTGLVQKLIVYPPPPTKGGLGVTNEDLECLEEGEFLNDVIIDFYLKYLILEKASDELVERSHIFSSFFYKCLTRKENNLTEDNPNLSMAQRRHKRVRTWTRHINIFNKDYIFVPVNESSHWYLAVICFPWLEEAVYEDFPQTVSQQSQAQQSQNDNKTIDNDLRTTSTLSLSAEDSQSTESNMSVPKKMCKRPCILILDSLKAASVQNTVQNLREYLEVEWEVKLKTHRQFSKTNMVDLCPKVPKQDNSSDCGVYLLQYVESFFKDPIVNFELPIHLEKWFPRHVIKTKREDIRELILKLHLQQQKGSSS
The test is classed as functional.

In a further test the target is T4, Caspase-3 (Homo sapiens, UniProt P42574).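 Note: Dose-response selectivity test against caspase-3 for candidate inhibitors of sentrin-specific proteases (SENPs).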
T4 sequence (P42574 whole entry): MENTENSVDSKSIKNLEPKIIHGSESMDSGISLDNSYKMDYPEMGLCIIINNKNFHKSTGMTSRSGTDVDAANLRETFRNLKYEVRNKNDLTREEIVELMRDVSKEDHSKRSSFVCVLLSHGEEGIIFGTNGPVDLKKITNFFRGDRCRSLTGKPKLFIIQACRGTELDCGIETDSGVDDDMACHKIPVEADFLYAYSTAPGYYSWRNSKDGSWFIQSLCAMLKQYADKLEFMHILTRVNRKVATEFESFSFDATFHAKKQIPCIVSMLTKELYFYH
The test is classed as functional.

Test [6] has as its target T5, Sentrin-specific protease 6 (Homo sapiens, UniProt Q9GZR1).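 Note: Luminescence-based dose-response confirmatory assay of SENP6 inhibition, following up an ultra-high-throughput screen.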
T5 sequence (Q9GZR1 whole entry): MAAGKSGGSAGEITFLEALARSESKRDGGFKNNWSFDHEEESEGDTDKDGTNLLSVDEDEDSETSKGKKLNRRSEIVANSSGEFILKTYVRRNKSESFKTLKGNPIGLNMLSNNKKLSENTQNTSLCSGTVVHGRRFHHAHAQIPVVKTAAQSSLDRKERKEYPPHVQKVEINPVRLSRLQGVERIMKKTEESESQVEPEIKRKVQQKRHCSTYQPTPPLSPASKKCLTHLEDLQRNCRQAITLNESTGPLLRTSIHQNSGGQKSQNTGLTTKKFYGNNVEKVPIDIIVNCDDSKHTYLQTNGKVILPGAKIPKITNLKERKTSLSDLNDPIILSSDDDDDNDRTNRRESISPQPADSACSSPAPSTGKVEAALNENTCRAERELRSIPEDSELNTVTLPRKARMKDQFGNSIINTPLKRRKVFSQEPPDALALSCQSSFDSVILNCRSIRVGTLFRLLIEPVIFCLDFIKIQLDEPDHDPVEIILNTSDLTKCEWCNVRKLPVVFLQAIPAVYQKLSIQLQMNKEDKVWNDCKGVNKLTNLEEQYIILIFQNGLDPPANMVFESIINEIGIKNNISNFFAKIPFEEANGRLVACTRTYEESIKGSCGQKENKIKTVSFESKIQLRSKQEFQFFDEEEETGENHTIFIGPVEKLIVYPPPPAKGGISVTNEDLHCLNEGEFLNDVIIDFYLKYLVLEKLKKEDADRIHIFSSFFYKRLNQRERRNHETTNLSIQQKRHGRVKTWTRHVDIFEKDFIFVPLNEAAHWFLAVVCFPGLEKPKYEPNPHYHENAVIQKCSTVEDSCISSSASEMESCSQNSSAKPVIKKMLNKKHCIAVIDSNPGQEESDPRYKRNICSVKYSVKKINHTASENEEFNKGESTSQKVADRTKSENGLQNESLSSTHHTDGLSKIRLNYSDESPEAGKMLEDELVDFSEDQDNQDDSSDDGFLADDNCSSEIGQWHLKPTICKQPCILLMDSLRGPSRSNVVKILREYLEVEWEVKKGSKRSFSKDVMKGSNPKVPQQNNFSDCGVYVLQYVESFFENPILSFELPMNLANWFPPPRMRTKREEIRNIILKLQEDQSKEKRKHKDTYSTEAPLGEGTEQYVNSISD
The test is classed as functional.

The nature of test [7]: viability of PTEN-deleted HCT116 cells – cell-based, HCT116 PTEN knockout, dose response (AID 1047).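 Note: HCT116 colon tumor cells with PTEN knocked out; cells exposed to compound for 60 hours before readout; potency for loss of cell viability measured by luminescence.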 The test is classed as functional.
In test [8] the test system is BJ. Kind of test: BJ-TERT-LT-ST fibroblast viability loss – cell-based, RAS-independent, luminescence, dose response (AID 1935).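 Note: BJ fibroblasts immortalized with TERT plus LT and ST oncogenes.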 Format: functional. Particulars: Homo sapiens.
The nature of test [9]: DRD fibroblast viability loss – cell-based, non-viral oncogenic, luminescence, dose response (AID 1934). The test is classed as functional. Particulars: Homo sapiens.
Test [10] can be described thus: HEK-293T viability loss after treatment – luminescence, T-cell screen hits, cytotoxicity control for TCR NF-kB inhibitor project, dose response (AID 489026).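 Note: cells exposed to compound about 14 hours before the viability readout.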 The test is classed as functional, cell-based.
Test [11] concerns BJ. Description: BJ-TERT fibroblast viability loss – cell-based, RAS-independent, luminescence, dose response (AID 1933). Format: functional. Particulars: Homo sapiens.
Test [12] concerns BJ. Kind of test: cells. The test is classed as functional, cell-based. Particulars: Homo sapiens.
A short description of test [13]: Luminescence Cell-Based Dose Retest to Confirm Inhibitors of Cancer Stem Cells. [Related pubchem assays (depositor defined):AID2717, AID2721]. Format: functional. Particulars: Homo sapiens.
Another test has as its target Cytochrome P450 2C19 (Homo sapiens, UniProt P33261). Description: Cytochrome panel assay with activity outcomes. Panel member name: p450-cyp2c19 Compounds with AC50 equal or less than 10 uM are considered active. The test is classed as functional. Particulars: read-out: AC50.

Drawing on ChEMBL document CHEMBL1201862, “PubChem BioAssay data set” (2004), this text covers IC50, AC50 and EC50 for 20 molecules.

Active and inactive are the calls of the source.

Chain of Cytochrome P450 3A4 (P08684 whole entry): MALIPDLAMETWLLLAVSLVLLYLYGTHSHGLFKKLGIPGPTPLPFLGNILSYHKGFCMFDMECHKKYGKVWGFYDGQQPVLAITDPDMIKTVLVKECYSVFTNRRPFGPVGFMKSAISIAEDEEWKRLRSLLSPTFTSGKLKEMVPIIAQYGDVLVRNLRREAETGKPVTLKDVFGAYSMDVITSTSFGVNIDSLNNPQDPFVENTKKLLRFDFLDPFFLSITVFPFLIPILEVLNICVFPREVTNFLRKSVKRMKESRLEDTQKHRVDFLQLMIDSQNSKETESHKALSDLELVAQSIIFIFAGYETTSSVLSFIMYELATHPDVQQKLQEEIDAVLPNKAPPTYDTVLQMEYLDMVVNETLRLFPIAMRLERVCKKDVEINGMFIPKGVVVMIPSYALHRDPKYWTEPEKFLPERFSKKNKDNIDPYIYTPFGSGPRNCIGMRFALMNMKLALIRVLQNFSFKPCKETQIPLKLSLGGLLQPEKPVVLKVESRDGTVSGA
Chain of Induced myeloid leukemia cell differentiation protein Mcl-1 (Q07820 whole entry): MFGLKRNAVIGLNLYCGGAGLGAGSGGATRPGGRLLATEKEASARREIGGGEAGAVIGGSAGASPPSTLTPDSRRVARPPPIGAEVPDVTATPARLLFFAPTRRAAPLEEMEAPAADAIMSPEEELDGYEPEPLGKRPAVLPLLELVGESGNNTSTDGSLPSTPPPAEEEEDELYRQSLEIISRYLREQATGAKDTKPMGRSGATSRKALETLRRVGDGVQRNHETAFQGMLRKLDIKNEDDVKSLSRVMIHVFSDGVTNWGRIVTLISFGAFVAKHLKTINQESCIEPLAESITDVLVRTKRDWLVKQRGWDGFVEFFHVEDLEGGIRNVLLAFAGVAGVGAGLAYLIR
Chain of Cytochrome P450 2C19 (P33261 whole entry): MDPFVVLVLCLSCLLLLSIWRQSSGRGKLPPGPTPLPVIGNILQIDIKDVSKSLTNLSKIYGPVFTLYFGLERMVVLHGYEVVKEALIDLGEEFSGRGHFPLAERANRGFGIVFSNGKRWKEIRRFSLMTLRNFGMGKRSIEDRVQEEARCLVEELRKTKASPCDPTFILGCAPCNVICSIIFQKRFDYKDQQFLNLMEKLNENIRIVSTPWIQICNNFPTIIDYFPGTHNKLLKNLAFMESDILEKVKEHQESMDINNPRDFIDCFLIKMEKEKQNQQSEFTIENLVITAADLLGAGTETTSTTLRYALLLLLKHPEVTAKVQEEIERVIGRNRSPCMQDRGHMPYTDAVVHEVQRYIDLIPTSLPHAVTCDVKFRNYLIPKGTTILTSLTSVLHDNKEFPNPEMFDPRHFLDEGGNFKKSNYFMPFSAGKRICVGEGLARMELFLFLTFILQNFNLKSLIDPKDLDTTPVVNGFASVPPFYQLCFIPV
Chain of Cytochrome P450 2C9 (P11712 whole entry): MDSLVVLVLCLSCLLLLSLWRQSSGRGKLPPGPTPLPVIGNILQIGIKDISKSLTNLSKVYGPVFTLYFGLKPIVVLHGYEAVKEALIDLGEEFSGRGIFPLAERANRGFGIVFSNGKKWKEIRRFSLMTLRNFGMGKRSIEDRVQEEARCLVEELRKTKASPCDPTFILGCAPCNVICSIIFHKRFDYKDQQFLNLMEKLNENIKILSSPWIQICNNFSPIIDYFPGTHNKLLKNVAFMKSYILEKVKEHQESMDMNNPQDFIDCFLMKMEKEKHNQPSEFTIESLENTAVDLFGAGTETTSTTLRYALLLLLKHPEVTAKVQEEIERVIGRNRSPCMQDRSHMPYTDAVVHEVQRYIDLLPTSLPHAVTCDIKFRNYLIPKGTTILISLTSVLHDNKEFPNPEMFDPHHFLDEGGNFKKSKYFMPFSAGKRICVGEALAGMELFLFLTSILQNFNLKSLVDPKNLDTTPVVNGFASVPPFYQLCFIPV

As usually defined, the IC50 is the midpoint of a concentration-inhibition curve. Turning to `Cn1c(N)c(C(=O)COC(=O)C2CCC(C(C)(C)C)CC2)c(=O)n(C)c1=O` (stereo not given), the IC50 in [1] was 10.4 µM (active).
For orientation: AC50 means the concentration at which the activity in the assay is half-maximal. On to `CC(=O)C1CCC2C3CC(C)C4=CC(=O)CC[C@@]4(C)C3C(O)C[C@@]12C` (stereo not given in full), for which, at Cytochrome P450 3A4, the AC50 is 31.6 µM (inconclusive).
With `CCc1nn2c(=O)cc(COc3ccc(/C=C4\C(=N)N5N=C(C)SC5=NC4=O)cc3)nc2s1`, the IC50 in test [2] was 4.66 µM (active).
As for `CC[C@]1(O)CC(O[C@@H]2CC(N(C)C)C(O)C(C)O2)c2c(cc3c(c2O)C(=O)c2c(O)cccc2C3=O)C1C(=O)OC` (stereo not given in full), the AC50 at Cytochrome P450 3A4 is 39.8 µM (inconclusive).
Regarding `COc1ccc(C(=O)n2nc(-c3ccccc3)nc2SC)cc1`, the AC50 on Cytochrome P450 2C9 is 141 nM (inconclusive). Also, the IC50 at Prothrombin is 913 nM (active).
Regarding `COC(C1CCCCC1)C(C)C(OCc1cccc(Br)c1)C(C)CO` (stereo not given), the AC50 at Cytochrome P450 3A4 was 3.16 µM (inconclusive).
For orientation: EC50 means the concentration needed to bring the measured effect to its halfway point. Turning to `Oc1[nH]c2ccccc2c1N=Nc1nc2ccccc2s1`, the EC50 in test [3] was 32.3 µM (active); in test [7] it was 26.5 µM (active). In addition, the IC50 in test [4] is > 100 µM (inactive); in test [5] it was 4.3 µM (active); on Caspase-3 it was 27.6 µM (active); in test [2], 3.84 µM (active); in test [6], 66.4 µM (active).
Regarding `CCOc1ccc(N(CC(=O)Nc2ccccc2C)S(=O)(=O)c2c(C)noc2C)cc1`, the EC50 is 16.9 µM (active) with BJ [8], 4.15 µM (active) in [9], 5.06 µM (active) in the test with BJ [11] and 29.9 µM (active) in the test with BJ [12]. Besides, the IC50 in test [10] was > 80 µM (inactive).
In the case of `COc1cc(-n2c(=O)c3ccccc3n(Cc3cccc(C)c3)c2=O)cc(OC)c1OC`, the IC50 in test [1] is 19.3 µM (active).
Take `OC1=C2C(=Nc3ccc4ncccc4c3C2c2ccc(O)c(O)c2)CCC1` (stereo not given): in test [2], the IC50 was 4.38 µM (active).
`CC1CC(O)[C@]2(O)[C@]13CC(=O)OC[C@@]2(C)[C@@](C)(O)C(=O)C3` (stereo not given in full): on Cytochrome P450 3A4, the AC50 is 31.6 µM (inconclusive).
On the same count and under the same terms, to `Nc1nc(/C(=C/CC(=O)O)C(=O)NC2C(=O)N3C(C(=O)O)=CCSC23)cs1` (stereo not given) belongs 31.6 µM (inconclusive).
Turning to `Cc1ccccc1NC(=S)NCCC(c1ccccc1)c1ccccc1`, the IC50 in test [1] was 2.48 µM (not active).
Take `CCCC(=O)Nc1nc2ccc(NC(=O)c3c(F)c(F)c(OC)c(F)c3F)cc2s1`: the EC50 is 77.5 µM (inconclusive) with BJ [8], 2.2 µM (active) in test [9], 4.47 µM (active) in the test on BJ [11] and > 150 µM (not active) in the test on BJ [12]. Moreover, the IC50 in test [10] was > 80 µM (inactive). In [13], the AC50 was 367 nM (active).
As to `COc1ccc(C(=O)Nc2cccc(-c3cc4ccccc4oc3=O)c2)cc1[N+](=O)[O-]`, the IC50 in test [1] is listed as 12.3 µM (not active).
The same measure, in the same setting: to `Cc1ccc(NC(S)=NC(C)CCc2ccccc2)cc1C` (stereo not given) belongs 17.3 µM (not active).
As to `Oc1ccccc1C1Nc2cccc3cccc(c23)N1`, at Cytochrome P450 2C19, the AC50 was 3.16 µM (inconclusive). In [2], the IC50 was 3.25 µM (active).
In the case of `COc1ccc(/C=N/Nc2nncc3ccccc23)cc1`, the EC50 in the test with BJ [8] was 18.6 µM (active); in [9] it was 7.41 µM (active); in the test on BJ [11] it was 8.72 µM (active); with BJ [12], 9.05 µM (active).
For `COC(=O)CC1C(C)(C)C(OC(C)=O)C2CC3=C4CC(=O)OC(c5ccoc5)[C@]4(C)CCC3[C@@]1(C)C2=O` (stereo not given in full), the AC50 on Cytochrome P450 3A4 was 1.58 µM (inconclusive).
Take `C/C(=N\OCC(=O)NC12CC3CC(CC(C3)C1)C2)c1cc2ccccc2o1`: the IC50 in [1] is listed as 8.83 µM (not active).
